Consider 2 compounds from patent US20250161278A1, “CBL-B INHIBITOR, COMPOSITIONS COMPRISING A CBL-B INHIBITOR IN A METHOD OF TREATING A DISEASE ASSOCIATED WITH CELL PROLIFERATION” (HOTSPOT THERAPEUTICS, INC., priority 2022, published 2025).

Series [1] relates to H22 tumor cells. Description: Subcutaneous H22 murine liver cancer model, tumor growth inhibition. Type of series: in vivo, mouse. The conditions noted are these: for TGI (%): H22 s.c., female BALB/c mice. The procedure: The objective of this pharmacology study was to evaluate the anti-tumor growth efficacy of Compound 85 in the treatment of the subcutaneous H22 murine liver cancer model in female BALB/c mice. Compound 85 test particles were delivered via PO when the average tumor volume reached approximately 80 mm^3. […] Tumor volumes and body weight were measured three times per week after the initiation of treatment.
The H22 tumor cells were maintained in vitro with RPMI-1640 medium supplemented with 10% fetal bovine serum at 37° C. in an atmosphere of 5% CO2. Cells in the exponential growth phase were harvested and quantified by cell counter before tumor inoculation.
Each mouse was inoculated subcutaneously in the right front flank region with H22 tumor cells (1×10e6) in 0.1 ml of PBS for tumor development.
The randomization started when the mean tumor size reaches approximately 79.89 mm^A3. […] Randomization was performed based on “Matched distribution” method/“Stratified” method (Study Director™ software, version 3.1.399.19)/randomized block design. The date of randomization was denoted as day 0.
After tumor inoculation, the animals were checked daily for morbidity and mortality. During routine monitoring, the animals were checked for any effects of tumor growth and treatments on behavior such as mobility, food and water consumption, body weight gain/loss (Body weights were measured thrice per week after randomization), eye/hair matting and any other abnormalities. Mortality and observed clinical signs were recorded for individual animals in detail.
Tumor volumes were measured three times per week after randomization in two dimensions using a caliper, and the volume was expressed in mm3 using the formula: V=(L×W×W)/2, where V is tumor volume, L is tumor length (the longest tumor dimension) and W is tumor width (the longest tumor dimension perpendicular to L). Dosing, as well as tumor and body weight measurements, were conducted in a Laminar Flow Cabinet.
Tumor growth inhibition (TGI): TGI % is an indication of antitumor activity, expressed as: TGI (%)=100×(1−T/C). T and C are the mean tumor volume (or weight) of the treated and control groups on a given day.
The treatment was performed for 21 days and the study was terminated on day 20 post dosing initiation.

The subject of series [2] is CT26 tumor cells. Description: Subcutaneous CT26 murine colorectal cancer model (Example 5), tumor growth inhibition. Type of series: in vivo, mouse. The conditions noted are these: CT26 s.c., female BALB/c mice. The procedure: (§1) The objective of this study was to evaluate the in vivo anti-tumor efficacy of Compound 85 in the subcutaneous CT26 murine colorectal cancer model in female BALB/c mice. Compound 85 test particle was delivered via PO when tumors reached 80 mm^3. The compound was assessed at six different dose levels (3 mpk, l0 mpk, 30 mpk for BID and 6 mpk, 20 mpk and 60 mpk for QD). Tumor volumes and body weight were measured twice per week after the initiation of treatment. Compound 85 level was assessed in the plasma and tumor at the end of the study.
The CT26 tumor cells were maintained in vitro with RPMI-1640 medium supplemented with 10% fetal bovine serum at 37° C. in an atmosphere of 5% CO2. The cells in exponential growth phase were harvested and quantitated by cell counter before tumor inoculation.
Each mouse was inoculated subcutaneously in the right lower flank region with CT26 tumor cells (5×10^5) in 0.1 ml of PBS.
The randomization started when the mean tumor size reaches approximately 80.7 mm^3. In total, 80 mice were enrolled in the study and randomly allocated into 8 study groups, with 10 mice per group. Randomization was performed based on the “Matched distribution” method (Study Director™ software, version 3.1.399.19). The date of randomization was denoted as day 0.
(§2) After tumor inoculation, the animals were checked daily for morbidity and mortality. During routine monitoring, the animals were checked for any effects of tumor growth and treatments on behavior such as mobility, food and water consumption, body weight gain/loss (Body weights would be measured twice per week after randomization), eye/hair matting and any other abnormalities. Mortality and observed clinical signs were recorded for individual animals in detail.
(§3) Tumor volumes were measured twice per week after randomization in two dimensions using a caliper, and the volume was expressed in mm3 using the formula: V=(L×W×W)/2, where V is tumor volume, L is tumor length (the longest tumor dimension) and W is tumor width (the longest tumor dimension perpendicular to L). Dosing as well as tumor and body weight measurements were conducted in a Laminar Flow Cabinet.

Series [3] has as its system CT26 tumor cells. Put plainly: Subcutaneous CT26 murine colorectal cancer model (Example 6), tumor growth inhibition. Type of series: in vivo, mouse. The conditions noted are these: day 13, CT26 s.c., female BALB/c mice. As to the method: The objective of this study was to evaluate preclinically the in vivo dose of test compounds in the treatment of the subcutaneous CT26 murine colorectal cancer model in female BALB/c mice.
The CT26 tumor cells were maintained in vitro with RPMI-1640 medium supplemented with 10% fetal bovine serum at 37° C. in an atmosphere of 5% CO2 in air. The cells in exponential growth phase was harvested and quantitated by cell counter before tumor inoculation.
Each mouse was inoculated subcutaneously in the right lower flank region with CT26 tumor cells (5×10^5) in 0.1 ml of PBS for tumor development.
The randomization started when the mean tumor size reaches approximately 89.91 mm^3. Totally 80 mice were enrolled in the study and randomly allocated to 8 study groups, with 10 mice per group. Randomization was performed based on “Matched distribution” method (Study Director™ software, version 3.1.399.19). The date of randomization was denoted as day 0 (Jul. 8, 2021).
as §2, §3
Tumor growth inhibition (TGI): TGI % is an indication of antitumor activity, and expressed as: TGI (%)=100×(1−T/C). T and C are the mean tumor volume (or weight) of the treated and control groups, respectively, on a given day.
The treatment was performed for 14 days. There was no extension of the treatment, the study was terminated on Day 13 post dosing initiation.
To compare tumor volumes of different groups at a pre-specified day, Bartlett's test was used to check the assumption of homogeneity of variance across all groups. When the p-value of Bartlett's test was >=0.05, we ran one-way ANOVA to test overall equality of means across all groups. If the p-value of the one-way ANOVA was <0.05, post hoc testing was performed by running Tukey's HSD (honest significant difference) tests for all pairwise comparisons, and Dunnett's tests for comparing each treatment group with the vehicle group. […]

Series [4] is described as follows: Body weight and mortality monitoring in CT26 model (Example 5). In kind it is in vivo. As to the method:
as §1, §2
The body weights and tumor volumes were measured by using Study Director™ software (version 3.1.399.19).

On to `C[C@H]1CCCN(Cc2cc(C(F)(F)F)c3cn(-c4cccc(C5(Cc6nncn6C)COC5)c4)c(=O)n3c2)C1` [Compound 29], for which the “TGI (%)” value was determined as 63.97% in series [1] (60 mpk BID p.o.), 10.78% in series [3] (30 mg/kg BID p.o.), 41.76% in series [3] (60 mg/kg BID p.o.) and 50.83% in series [3] (100 mg/kg BID p.o.). For the same compound, the “TGI(%) on Day 18” value in series [2] (30 mpk BID p.o.) came out at 17.3%.

With `C[C@H]1CCCN(Cc2cc(C(F)(F)F)c3cn(-c4cncc([C@H](c5nncn5C)C5CCC5)c4)c(=O)n3c2)C1` [Compound 85], the “loss of average body weight” value was “less than 5%” in series [4] (day 3, 30 mpk BID p.o.) and “less than 5%” in series [4] (day 3, 60 mpk QD p.o.). In series [4] (mouse, in vivo), the mortality result was “No mortality was reported”. The “TGI (%)” value came to 19.56% in series [1] (2 mpk QD p.o.); 41.21% in series [1] (10 mpk QD p.o.); 68.54% in series [1] (20 mpk QD p.o.); 64.65% in series [1] (40 mpk QD p.o.); 43.02% in series [3] (30 mg/kg BID p.o.). Besides, the “minimal efficacious dose (lowest dose showing significant tumor inhibition)” value in series [1] (QD p.o., single agent) is 6 mpk. In addition, the “maximum TGI” value in series [1] (high doses, 20 mpk or 40 mpk QD) is about 65%. The “TGI(%) on Day 18” value in series [2] (3 mpk BID p.o.) is reported as 18.7%; in series [2] (6 mpk QD p.o.) it was 3.8%; in series [2] (10 mpk BID p.o.) it was 24.4%; in series [2] (20 mpk QD p.o.), 22.2%; in series [2] (30 mpk BID p.o.), 37.9%; in series [2] (60 mpk QD p.o.) it was 33.9%.
